Source: US20130090303A1, “Agonists of PY2Y Receptor as a Treatment for Aortic Stenosis and Cardiovascular Calcification” (UNIVERSITE LAVAL, priority 2011, published 2013)

Experiments:
Runx2, osteocalcin = experiment: Real-time PCR expression of Runx2 and osteocalcin in isolated VICs; assay type: cell-based, Human; settings: q-PCR normalized to HPRT, FIG. 2C
Method: RNA was also extracted from AS valves and cells during in vitro experiments. Total RNA was isolated with RNeasy micro kit from Qiagen (Qiagen, Mississauga, Ont, Canada). The RNA extraction protocol was performed according to manufacturer's instructions using 100 mg of tissue. The quality of total RNA was monitored by capillary electrophoresis (Experion, Biorad, Mississauga, Ont, Canada). Four (4) μg of RNA was reverse transcribed using the Quantitec Reverse Transcription Kit from Qiagen. Quantitative real-time PCR (q-PCR) was performed with Quantitec SYBR Green PCR kit from Qiagen in the Rotor-Gene 6000 system (Corbett Robotics Inc, San Francisco, Calif., USA). The following primers were obtained from (Invitrogen, Burlington, Ont, Canada): P2Y2, Runx2, osteocalcin. The expression of hypoxanthine-guanine phosphoribosyltransferase (HPRT) (Invitrogen, Burlington, On, Canada) as a reference gene was chosen to normalize the results.
(§1) Human valve interstitial cells (VICs) were isolated by collagenase digestion. To provoke calcification, cells were incubated for 7 days with a pro-calcifying medium containing: DMEM+5% FBS, 10^−7 M insulin, 50 μg /ml ascorbic acid and NaH2PO4 at 2 mM.

[1] = system: valve interstitial cells (VICs); experiment: In vitro calcification of isolated valve interstitial cells (calcium by Arsenazo III method); assay type: cell-based; settings: isolated human VICs, pro-calcifying medium 7 days; FIG. 2A/2B
Method: In isolated cells, calcium was measured by the Arsenazo III method (Côte N, et al. J Mol Cell Cardiol 2012;52:1191-202) and results reported as percent changes.
as §1

SMILES: O=c1ccn([C@@H]2O[C@H](COP(=O)(O)OP(=O)(O)OP(=O)(O)O)[C@@H](O)[C@H]2O)c(=S)[nH]1 [2-thioUTP]
- expression of osteocalcin (Runx2, osteocalcin): decreased the expression
- expression of the bone transcription factor, Runx2 (Runx2, osteocalcin): decreased the expression
- calcification of isolated VICs [1]: reduced significantly calcification

SMILES: Cc1ccc(C(=O)Nc2ccc(S(=O)(=O)O)c3cc(S(=O)(=O)O)cc(S(=O)(=O)O)c23)cc1NC(=O)c1cccc(NC(=O)Nc2cccc(C(=O)Nc3cc(C(=O)Nc4ccc(S(=O)(=O)O)c5cc(S(=O)(=O)O)cc(S(=O)(=O)O)c45)ccc3C)c2)c1 [suramin]
- calcification of isolated VICs [1]: increased calcification
